The target in data set [1] is T1, hCRF1 (Homo sapiens, UniProt P34998).
T1 construct: Celll membranes are prepared according the method of Dieterich and DeSouza (1996); endogenous in cells; host or cells: human IMR-32 neuroblastoma cells (membrane preparation)
T1 sequence (P34998 24-415): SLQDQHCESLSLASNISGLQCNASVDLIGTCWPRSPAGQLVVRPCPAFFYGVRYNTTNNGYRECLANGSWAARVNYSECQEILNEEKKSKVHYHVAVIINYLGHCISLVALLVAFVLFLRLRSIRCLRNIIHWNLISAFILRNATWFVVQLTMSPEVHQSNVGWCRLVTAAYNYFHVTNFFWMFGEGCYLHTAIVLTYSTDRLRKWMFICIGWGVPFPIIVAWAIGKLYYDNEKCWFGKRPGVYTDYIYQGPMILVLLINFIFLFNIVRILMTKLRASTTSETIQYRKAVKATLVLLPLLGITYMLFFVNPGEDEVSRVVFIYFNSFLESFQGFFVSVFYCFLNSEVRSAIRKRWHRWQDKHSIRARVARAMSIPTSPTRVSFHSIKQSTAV
Put plainly: CRF Receptor Binding Assay. The note with it: CRF1 receptor binding affinity (table title); read-out: hCRF1 (pIC50) (converted). As to the method: Human IMR-32 neuroblastoma cells are grown to 80% confluence in MEM medium containing 10% heat-inactivated FBS, 1 mM Sodium Pyruvate, and 0.1 mM nonessential amino acids. Celll membranes are prepared according the method of Dieterich and DeSouza (1996). The cells (˜5E+9) are resuspended in 10 volumes of wash buffer (5 mM Tris HCl, 10 mM MgCl2, 2 mM EGTA, pH 7.4 at RT), homogenized with a Polytron, and then centrifuged at 45,000 G for 20 min at 4° C. The membrane pellets are washed twice with wash buffer (45,000 G for 20 min at 4° C.) and then resuspended (50 mM Tris HCl, 10 mM MgCl2, 2 mM EGTA, pH 7.4 at RT). Protein concentration is determined using Pierce reagents and BSA as standard. Aliquots of 1-1.5 ml are stored at −80° C. until binding assay.
The competition binding assay is performed in a final volume of 250 μl, which contains assay buffer (50 mM Tris-HCl, 10 mM MgCl2, 2 mM EGTA, 0.2% BSA, 0.1 mM bacitracin and 100 kIU/ml aprotinin pH 7.2 at R.T.), 0.05 nM [^125I]Tyr^0-ovine CRF (Du Pont New England Nuclear), 50 μg of membrane protein, and test compound at various concentrations. Non-specific binding is determined with 1 uM hCRF. Binding reactions are terminated after 2 hr incubation at 25° C. by filtering through 96-w GF/C filter plate using a Packard Harvester (Filtermate 196). The 96-w filter plate is pre-treated with 0.3% polyethyleneimine and pre-washed with washing buffer (50 mM Tris-HCl, 10 mM MgCl2, 2 mM EGTA, 0.2% BSA, pH 7.2 at 4° C.). Unbound radioactivity is removed by four rapid washes (0.8 ml/well) with wash buffer. The radioactivity is quantified using a Packard TopCount. Data are analyzed using non-linear iterative curve fitting to obtain IC50 and Hill slope values. PKi values are derived from pIC50 values (−log of IC50).

`CCCC(CCC)c1c2c(nn1C)N(c1c(C)cc(C)cc1C)CCC2` [Example 7b, 2-Methyl-3-(1-propylbutyl)-7-(2,4,6-trimethylphenyl)-4,5,6,7-tetrahydro-2H-pyrazolo[3,4-b]pyridine] displayed a melting point of 91.5 to 92 °C. In addition, the IC50 in data set [1] was 0.0871 µM.
On the same counts, the results for `Cc1cc(C)c(N2CCCc3c2nn(C)c3-c2ccccc2C(F)(F)F)c(C)c1` [Example 13a, 2-Methyl-3-(2-trifluoromethylphenyl)-7-(2,4,6-trimethylphenyl)-4,5,6,7-tetrahydro-2H-pyrazolo[3,4-b]pyridine] are 59 to 63 °C and 0.776 µM.

The melting point is the temperature, or range, at which the solid turns liquid.

Source of the values: patent US7268146B2, “Ring fused pyrazole derivatives as CRF antagonists” (Palo Alto LLC, priority 2001, dated 2007).
